From the NIST ThermoML archive (doi:10.1021/je201283n)

Details: Liquid, isochoric method

CCCCn1cc[n+](C)c1.N#CN=C=[N-] [1-butyl-3-methylimidazolium dicyanamide]
Details | mass density [kg/m3]
237.2 K, 1327.9 kPa | 1099.45
242.14 K, 9986.9 kPa | 1099.05
247.77 K, 20189 kPa | 1098.57
248.09 K, 1170.5 kPa | 1092.06
253.33 K, 10197 kPa | 1091.63
253.33 K, 29961 kPa | 1098.11
259.12 K, 20009 kPa | 1091.16
259.17 K, 39931 kPa | 1097.63
259.68 K, 1030 kPa | 1084.28
265.12 K, 50114 kPa | 1097.14
265.24 K, 10141 kPa | 1083.84
265.25 K, 30347 kPa | 1090.66
270.55 K, 18709 kPa | 1083.42
271.07 K, 59859 kPa | 1096.65
271.13 K, 39925 kPa | 1090.18
273.28 K, 2767.5 kPa | 1075.98
277.42 K, 50079 kPa | 1089.67
277.92 K, 9955.1 kPa | 1075.61
277.96 K, 30503 kPa | 1082.82
277.98 K, 10008 kPa | 1075.61
283.67 K, 59955 kPa | 1089.17
284.14 K, 40138 kPa | 1082.33
284.15 K, 1038.8 kPa | 1068.31
284.23 K, 1148.3 kPa | 1068.31
284.47 K, 20074 kPa | 1075.1
291.05 K, 29671 kPa | 1074.21
291.05 K, 30032 kPa | 1074.57
291.06 K, 11299 kPa | 1067.78
291.44 K, 51356 kPa | 1081.75
296.97 K, 19796 kPa | 1067.32
297.26 K, 60158 kPa | 1081.29
298.18 K, 40270 kPa | 1073.65
298.18 K, 40659 kPa | 1074.02
299.21 K, 3719.1 kPa | 1059.78
303.97 K, 10315 kPa | 1059.42
303.97 K, 30176 kPa | 1066.78
304.81 K, 50325 kPa | 1073.5
310.98 K, 40117 kPa | 1066.24
311.01 K, 20033 kPa | 1058.89
311.34 K, 59700 kPa | 1072.99
311.37 K, 676.6 kPa | 1050.98
317.98 K, 49917 kPa | 1065.7
318.27 K, 9911 kPa | 1050.46
318.27 K, 30183 kPa | 1058.34
325.32 K, 60007 kPa | 1065.14
325.56 K, 39796 kPa | 1057.8
326 K, 19921 kPa | 1049.89
326.53 K, 876.3 kPa | 1041.71
333.12 K, 50157 kPa | 1057.22
333.67 K, 9918.1 kPa | 1041.19
333.67 K, 30169 kPa | 1049.32
340.8 K, 60149 kPa | 1056.64
341.31 K, 39980 kPa | 1048.75
341.77 K, 20126 kPa | 1040.59
342.41 K, 781.5 kPa | 1031.94
349.32 K, 50089 kPa | 1048.15
349.8 K, 9629.2 kPa | 1031.41
349.8 K, 30031 kPa | 1040.31

CCn1cc[n+](C)c1.N#CN=C=[N-] [1-ethyl-3-methylimidazolium dicyanamide]
Details | mass density [kg/m3]
256.82 K, 20357 kPa | 1142.71
256.92 K, 29975 kPa | 1145.41
256.97 K, 10611 kPa | 1139.49
257.12 K, 1250.8 kPa | 1136.35
261.97 K, 9950.2 kPa | 1135.94
262.11 K, 19886 kPa | 1139.04
262.33 K, 39980 kPa | 1144.93
262.46 K, 619.6 kPa | 1132.49
267.67 K, 20023 kPa | 1135.45
267.67 K, 39943 kPa | 1141.75
267.7 K, 9753.2 kPa | 1132.18
267.7 K, 9894 kPa | 1132.04
267.7 K, 29879 kPa | 1138.56
267.7 K, 29968 kPa | 1138.56
267.7 K, 49706 kPa | 1144.45
267.71 K, 20196 kPa | 1135.44
267.71 K, 40066 kPa | 1141.75
267.71 K, 49662 kPa | 1144.45
268.06 K, 649.7 kPa | 1128.69
273.25 K, 29805 kPa | 1134.96
273.34 K, 49967 kPa | 1141.26
273.4 K, 39951 kPa | 1138.06
273.49 K, 19943 kPa | 1131.55
273.51 K, 10041 kPa | 1128.22
273.55 K, 60051 kPa | 1143.95
274.21 K, 775.7 kPa | 1124.56
278.57 K, 59071 kPa | 1140.8
279.2 K, 40050 kPa | 1134.45
279.22 K, 50024 kPa | 1137.55
279.41 K, 30010 kPa | 1131.04
279.59 K, 10349 kPa | 1124.23
279.65 K, 9960.6 kPa | 1124.1
279.66 K, 20569 kPa | 1127.7
280.01 K, 1016.8 kPa | 1120.72
280.04 K, 1077.6 kPa | 1120.72
285.08 K, 50002 kPa | 1133.94
285.13 K, 60064 kPa | 1137.04
285.39 K, 9816.5 kPa | 1120.27
285.42 K, 40116 kPa | 1130.53
285.43 K, 19560 kPa | 1123.61
285.44 K, 19459 kPa | 1123.61
285.45 K, 9814.9 kPa | 1120.27
285.5 K, 20153 kPa | 1123.73
285.51 K, 30235 kPa | 1127.2
286.62 K, 2009 kPa | 1116.68
291.09 K, 59995 kPa | 1133.42
291.45 K, 50059 kPa | 1130.01
291.47 K, 9754 kPa | 1116.28
291.47 K, 50178 kPa | 1130.13
291.51 K, 40153 kPa | 1126.69
291.61 K, 19904 kPa | 1119.75
291.79 K, 29944 kPa | 1123.08
297.62 K, 60101 kPa | 1129.48
297.75 K, 50232 kPa | 1126.16
297.91 K, 20011 kPa | 1115.75
297.98 K, 30141 kPa | 1119.22
298.08 K, 1020.2 kPa | 1108.78
298.16 K, 103.4 kPa | 1108.35
298.16 K, 40265 kPa | 1122.54
303.94 K, 60074 kPa | 1125.65
304.2 K, 39942 kPa | 1118.71
304.23 K, 49724 kPa | 1122.03
304.28 K, 29918 kPa | 1115.22
304.34 K, 10634 kPa | 1108.27
310.52 K, 20049 kPa | 1107.77
310.57 K, 59616 kPa | 1121.51
310.65 K, 49941 kPa | 1118.17
310.81 K, 40003 kPa | 1114.68
311.24 K, 1092 kPa | 1100.23
317.17 K, 9765 kPa | 1099.76
317.19 K, 29905 kPa | 1107.23
317.23 K, 59899 kPa | 1117.62
317.44 K, 50073 kPa | 1114.13
324.19 K, 60082 kPa | 1113.57
324.28 K, 20103 kPa | 1099.19
325.02 K, 1127.1 kPa | 1091.44
331.28 K, 30008 kPa | 1098.63
331.29 K, 9862.4 kPa | 1090.95
337.92 K, 60055 kPa | 1105.54
338.39 K, 40023 kPa | 1098.06
338.74 K, 20149 kPa | 1090.36
339.67 K, 1074 kPa | 1082.2
345.69 K, 50073 kPa | 1097.48
346.21 K, 30275 kPa | 1089.77
346.22 K, 9873.1 kPa | 1081.75
